Results as given in patent US4873249A, “Pharmaceutical composition” (EGIS Gyogyszergyar, priority 1986, dated 1989).
Read-outs that look alike come from different tables or passages of the source. Blank lines part the entries; values can stand above or below the compound they belong to.

Legend:
[1] = test system: brewer's yeast induced fever in rats; assay: Antipyretic activity in rats (brewer's yeast fever); assay type: in vivo, Wistar rats
Experimental: The experiments were performed in groups of 10 Wistar rats of both sexes weighing 160-200 g. Fever was induced by 20% brewer's yeast suspended in 0.9% saline solution, applied subcutaneously in a volume of 2 ml/rat distributed at various sites of the back. After 18 hours the test compound or the vehicle was administered in a volume of 10 ml/kg p.o. During this period the rats were fasted but received drinking water ad libitum. The rectal temperature of the animals was measured with a Thermotest thermometer 2 days before injection of the fever inducer, then before the application of the test compound and after treatment in every 60th min. Animals with increase in body temperature less than 0.8° C. were excluded. The results were evaluated according to the statistical method of Duncan.

in vivo [2] = assay type: in vivo; conditions: mouse, in vivo, po; mice, LD50/writhing ID50; read-out: TI (therapeutic index)
Experimental: (§1) Between the 5th and 10th minute after the administration of acetic acid total number of the typical writhing reactions was counted, and expressed as percentage of the control. The experiments were performed in groups of at least 12 mice; measurements were done 60 min. after oral application of the test compounds.

[3] = test system: acetic-acid writhing reactions in mice; assay: animal or person; assay type: in vivo; conditions: Mus musculus, po, 1 h, read-out: Writhing test ID50
Experimental: as §1

in vivo [4] = conditions: mouse, po
Experimental: The observation period after treatment lasted for 14 days.
Statistical evaluation was carried out as described by Litchfield-Wilcoxon's method.

[5] = test system: carrageenin-induced oedema in rats; assay: Carrageenin-induced oedema test in rats; assay type: in vivo; conditions: 3 h after carrageenin
Experimental: Inhibitory activity in carrageenin-induced oedema test was assessed in rats using the technique of Winter at al. (1962). Carageenin (0.1 ml of 1.0% solution) was injected into the plantar surface of the hind paw of rats weighing 130-160 g. Rats were fasted for 12 hours and received drinking water ad libitum. One hour before treatment with the test compound animals were hydrated orally with 30 ml/kg of tap water. The test compounds or the vehicle were administered p.o. in a volume of 10 ml/kg, then two hours later carrageenin was applied. The paw volume was determined in a plethysmometer prior to and 3 hours after administration of the irritant.

[6] = Writhing test in rats (acetic acid); conditions: rat, in vivo, po
Experimental: (§2) Five minutes after treatment with acetic acid, total number of characteristic writhing reactions was counted for 10 minutes and expressed as percentage of the control group.

[7] = test system: acetic acid writhing reactions in rats; assay: Writhing test in rats (acetic acid); conditions: Rattus norvegicus, po, 1 h, read-out: Writhing test ID50
Experimental: as §2

Wistar rats = conditions: from Barron et al. 1968, 20160 min; cited from earlier work
gastric mucosa of rats = assay: Measurement of ulcerogenic activity; assay type: in vivo
[8] = test system: PHA stimulated granulocytes; assay: Chemiluminescence of PHA stimulated granulocytes; assay type: cell-based, human (healthy volunteers); conditions: Homo sapiens, read-out: IC50, chemiluminescence of PHA stimulated granulocytes
Experimental: (§3) Heparinized blood (10 IU/ml) was taken from healthy volunteers. The blood diluted with equal volume of dextran, the white blood cells were separated by sedimentation. The granulocytes were separated by Uromio gradient. […] The cell suspension was put in dark box for 15 min. Luminol was dissolved in concentrated NH4 OH and diluted in the following solution:
(§4) 50 ml Tris-Parker medium (containing 1.2 g Tris, pH=7.4)
(§5) 4 ml glucose 40% w/v in water
(§6) The Luminol solution (500 μl) was measured in plastic vials and put in dark (37° C.). The reaction was started by addition of the cells and stimulating agent (Phytohaemaglutinin-PHA 10 μg/ml).
(§7) The vials were continuously and gently shaken and the PHA stimulation was measured in every 2.5 min. for 15 min. in a Beckmann LS-100 spectrometer (coincidence switched off). The percentage of the counts measured was calculated in comparison with the solvent treated control cells. At least 5 concentrations of each compound were investigated in at least 3 parallels.

[9] = test system: adjuvant arthritis in rats; assay: Adjuvant arthritis in rats; assay type: in vivo, Long Evans rats; conditions: for Paw swelling, % Right: injected right hindpaw, day 10 (primary response); for % inhibition Left: left hindpaw, secondary response; for % inhibition Right: right hindpaw, primary response; for Paw swelling, % Left: uninjected left hindpaw, day 15 (secondary response)
mononuclear cells = assay: Chemiluminescence of PHA stimulated mononuclear cells; assay type: cell-based, human (healthy volunteers)
Experimental: as §3, §4, §5, §6, §7

[10] = Chemiluminescence induced by H2O2 in cell free medium
[11] = test system: gastric secretion in rats; assay: Effect on gastric secretion in rats (Shay, pylorus ligation); assay type: in vivo, Wistar rats; conditions: for Gastric juice / Free acid content / Total acid content: per 100 g body weight; for Free acid content / Total acid content: titration with 0.1 N NaOH
Experimental: The experiments were carried out following the surgical method of Shay et al. (1946). Fasted Wistar rats weighing 200-250 g were used. During a 48 hours, starving period rats received drinking water ad libitum. The experimental groups consisted of 4 males and 4 females.
On the day of experiment the pylorus of rats was ligated under ether anaesthesia. […] The control groups were treated simultaneously with identical volumes of vehicle in identical route of administration.
Four hours after operation rats were killed with ether, their stomach was removed after cardia ligature, the stomach contents were separated and after centrifugation the volume of the gastric juice was measured. The free acid and total acid content were assayed by titration with 0.1 N NaOH.
The results were individually transformed for 100 g body weight and statistically evaluated by Wilcoxon's method.

[12] = 200 mg/kg p.o., 1 hour following treatment
[13] = 200 mg/kg p.o., 3 hours following treatment
[14] = 200 mg/kg p.o., 5 hours following treatment

SMILES: CC(=O)Oc1ccccc1C(=O)O [Acetylsalicylic acid]
Decrease in body temperature [1, 12]: 0.7 °C | Decrease in body temperature [1, 13]: 1.0 °C | Decrease in body temperature [1, 14]: 1.0 °C | selectivity ratio (in vivo [2]): 5.2 | ED50 [3]: 261 mg/kg | LD50 at 336 h (in vivo [4]): 1350 mg/kg | % inhibition of carrageenin-induced oedema ([5]; 100 mg/kg p.o.): 29.5%

SMILES: COc1ccc2c(c1)c(CC(=O)O)c(C)n2C(=O)c1ccc(Cl)cc1 [Indomethacin, 1-(p-chloro-benzoyl)-5-methoxy-2-methyl-1H-indole-3-acetic acid]
% inhibition of carrageenin-induced oedema ([5]; 1 mg/kg p.o.): 40.3% | selectivity ratio [6]: 5.4 | ED50 [7]: 4.7 mg/kg | LD50 (Wistar rats): 25.5 mg/kg | Ulcus-index (gastric mucosa of rats; 5 mg/kg orally 6 and 16 h before decapitation): 0.2 | Ulcus-index (gastric mucosa of rats; 10 mg/kg orally 6 and 16 h before decapitation): 1.2 | Ulcus-index (gastric mucosa of rats; 20 mg/kg orally 6 and 16 h before decapitation): 3.0 | Effect on ulcus-index (in words) (gastric mucosa of rats; oral, over the doses of Table 4): increases does dependently the ulcus-index | IC50 [8]: > 100 µM

IC50 ([8]; PHA 10 μg/ml, Luminol 32 μM): 100 µM
SMILES: CCCCC1C(=O)N(c2ccccc2)N(c2ccccc2)C1=O [Phenylbutazone, 3,5-dioxo-1,2-diphenyl-4-(n-butyl)-pyrazolidine]
ED50 [3]: 100 to 200 mg/kg | Paw swelling, % Right ([9]; 30 mg/kg p.o. once daily): 94.6% | % inhibition Left ([9]; 30 mg/kg p.o. once daily): -49.6% | % inhibition Right ([9]; 30 mg/kg p.o. once daily): -19.2% | Paw swelling, % Left ([9]; 30 mg/kg p.o. once daily): 36.7% | % inhibition of carrageenin-induced oedema ([5]; 25 mg/kg p.o.): 56.6% | ED50 [7]: 19.7 mg/kg | Activity on chemiluminescence in mononuclear cells (mononuclear cells): inactive

SMILES: CC(=O)Nc1ccc(O)cc1 [Paracetamol, 4-hydroxy-acetanilide]
ED50 [3]: 180 mg/kg

SMILES: COc1ccc(Cc2cnc(N)nc2N)cc1OC [Compound A, 2,4-diamino-5-(3,4-dimethoxybenzyl)-pyrimidine]
Antipyretic activity (in words) [1]: significant antipyretic activity | Decrease in body temperature ([1]; 100 mg/kg p.o., 1 hour following treatment): 1.5 °C | Decrease in body temperature ([1]; 100 mg/kg p.o., 3 hours following treatment): 2.0 °C | Decrease in body temperature ([1]; 100 mg/kg p.o., 5 hours following treatment): 1.7 °C | Decrease in body temperature [1, 12]: 1.5 °C | Decrease in body temperature [1, 13]: 2.4 °C | Decrease in body temperature [1, 14]: 1.6 °C | ED50 [3]: 141 mg/kg | Influence on chemiluminescence induced by H2O2 [10]: did not influence | Paw swelling, % Right ([9]; 100 mg/kg p.o. once daily): 56.9% | % inhibition Left ([9]; 100 mg/kg p.o. once daily): -47.1% | % inhibition Right ([9]; 100 mg/kg p.o. once daily): -51.4% | Paw swelling, % Left ([9]; 100 mg/kg p.o. once daily): 38.5% | % inhibition of carrageenin-induced oedema ([5]; 125 mg/kg p.o.): 42.0% | ED50 [7]: 36 mg/kg | Gastric juice ([11]; 250 mg/kg orally): 3.01 mL | Free acid content ([11]; 250 mg/kg orally): 2.17 mL | Total acid content ([11]; 250 mg/kg orally): 4.33 mL | Gastric juice ([11]; 500 mg/kg orally): 2.93 mL | Free acid content ([11]; 500 mg/kg orally): 2.18 mL | Total acid content ([11]; 500 mg/kg orally): 4.40 mL | Gastric juice ([11]; 1000 mg/kg orally): 2.23 mL | Free acid content ([11]; 1000 mg/kg orally): 1.24 mL | Total acid content ([11]; 1000 mg/kg orally): 3.18 mL | inhibition at 250 mg/kg ([11]; Rattus norvegicus, 250 mg/kg, + = increase, - = decrease, read-out: % inhibition compared to the control, Gastric juice): 17.3% | Percent change from control (+ = increase, - = decrease) at 250 mg/kg ([11]; Rattus norvegicus, 250 mg/kg, read-out: % inhibition compared to the control, Free acid content): -23% | inhibition at 250 mg/kg ([11]; Rattus norvegicus, 250 mg/kg, read-out: % inhibition compared to the control, Total acid content): 11.8% | inhibition at 500 mg/kg ([11]; Rattus norvegicus, 500 mg/kg, + = increase, - = decrease, read-out: % inhibition compared to the control, Gastric juice): 15.2% | Percent change from control (+ = increase, - = decrease) at 500 mg/kg ([11]; Rattus norvegicus, 500 mg/kg, read-out: % inhibition compared to the control, Free acid content): -19.1% | inhibition at 500 mg/kg ([11]; Rattus norvegicus, 500 mg/kg, read-out: % inhibition compared to the control, Total acid content): 16.5% | inhibition at 1000 mg/kg ([11]; Rattus norvegicus, 1000 mg/kg, + = increase, - = decrease, read-out: % inhibition compared to the control, Gastric juice): -14% | Percent change from control (+ = increase, - = decrease) at 1000 mg/kg ([11]; Rattus norvegicus, 1000 mg/kg, p < 0.05, read-out: % inhibition compared to the control, Free acid content): -58.1% | inhibition at 1000 mg/kg ([11]; Rattus norvegicus, 1000 mg/kg, read-out: % inhibition compared to the control, Total acid content): -20.1% | Effect on gastric secretion (in words) ([11]; doses 250-1000 mg/kg): did not change the gastric secretion except in very high doses | IC50 [8]: 0.1 µM

IC50 ([8]; PHA 10 μg/ml, Luminol 32 μM): 100 µM
SMILES: CN1C(C(=O)Nc2ccccn2)=C(O)c2ccccc2S1(=O)=O [Piroxicam, 4-hydroxy-2-methyl-N-2-pyridyl-2H-1,2-benzothiazine-3-carboxamide-1,1-dioxide]
Activity on chemiluminescence in mononuclear cells (mononuclear cells): inactive

SMILES: Cc1c(N(C)C)c(=O)n(-c2ccccc2)n1C [Amidazophen, 1-phenyl-2,3-dimethyl-4-dimethylamino-pyrazolone-5, reference compound]
Decrease in body temperature [1, 12]: 2.7 °C | Decrease in body temperature [1, 13]: 2.3 °C | Decrease in body temperature [1, 14]: 1.7 °C
